Test results as given in US20220241249A1, “PHARMACEUTICAL COMPOSITION AND KIT CONTAINING NOVEL PENAM DERIVATIVE OR SALT THEREOF AND ONE OR MORE COMPOUNDS SELECTED FROM beta-LACTAMASE INHIBITORY COMPOUND AND ANTIBACTERIAL COMPOUND OR SALTS THEREOF” (priority 2019, published 2022).
In brackets after ≈: the same amount, converted by molar mass.

Columns and labels:
[1] = test system: Klebsiella pneumoniae Y-1133 strain producing NDM-1, OXA-48, and CTX-M-15 (strain C); assay: MIC of test compound alone or with β-lactamase inhibitor at 4 μg/mL; assay type: cell-based; details: Klebsiella pneumoniae
In short: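 Broth microdilution MIC against K. pneumoniae Y-1133 (NDM-1, OXA-48, CTX-M-15), test compound alone or combined with a β-lactamase inhibitor at 4 μg/mL.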

[2] = test system: Escherichia coli TK-1765 strain producing CMY-2 (strain E); assay: as above; assay type: cell-based; details: Escherichia coli
Description: By using a broth microdilution method, the combinational effect of a test compound and a β-lactamase inhibitor was evaluated.
The evaluation test for antibacterial activity was performed in the same manner as in Test Example 1.
Escherichia coli TK-1765 strain producing CMY-2 (hereinafter, called strain E)

[3] = test system: OXA-48-containing Klebsiella pneumoniae strain (Y-1062); assay: Antibacterial activity evaluation test, MIC by broth microdilution (CLSI); assay type: cell-based; details: Klebsiella pneumoniae
In short: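 Testing used compound-containing cation-adjusted Mueller Hinton broth seeded with a 10-fold dilution of a 0.5 McFarland suspension. After 16–20 h at 35° C., the lowest concentration with no visible growth was recorded as MIC in μg/mL.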

[4] = test system: multidrug-resistant Pseudomonas aeruginosa strain (S-2838 strain); assay: Test for protection against systemic infection in mouse with multidrug-resistant Pseudomonas aeruginosa; assay type: in vivo; details: sc, 72 h, read-out: survival rate 3 days after the inoculation with bacteria
Description: As mice, ICR male SPF mice (4 weeks old: 10 mice per group) were used. Clinically isolated multidrug-resistant Pseudomonas aeruginosa strain (S-2838 strain) cultured overnight on a Mueller-Hinton agar plate at 37° C. was cultured on a cation-adjusted Mueller Hinton medium for 5 hours, and then diluted 20-fold with a 10% mucin/phosphate buffer, thereby preparing an inoculum. An infection was induced by intraperitoneally inoculating the mice with the inoculum at 0.5 mL (about 10^6 CFU/mouse). Each test compound was dissolved in physiological saline, and 1 hour after the infection, the compound was subcutaneously administered once to the mice at 40 mg/kg. The control group was administered with the same amount of physiological saline used as a vehicle. The number of surviving mice was recorded 3 days after the infection.
A test for protection against systemic infection in a mouse with multidrug-resistant Pseudomonas aeruginosa was performed in the same manner as in Test Example 2.

[5] = test compound alone (β-lactamase inhibitor N/A)

Compound: CC(C)(O/N=C(\C(=O)NC1C(=O)N2C[C@@](C(=O)O)(N3CCN(NC(=O)C(=O)c4ccc(O)c(O)c4Cl)C(=O)C3=O)S[C@H]12)c1csc(N)n1)C(=O)O (stereo partly drawn) [Example 126, (3R,5R,6R)-6-((Z)-2-(2-aminothiazol-4-yl)-2-(((2-carboxypropan-2-yl)oxy)imino)aceta-mido)-3-(4-(2-(2-chloro-3,4-dihydroxy-phenyl)-2-oxoaceta-mido)-2,3-dioxopipera-zin-1-yl)-7-oxo-4-thia-1-azabicyclo[3.2.0]-heptane-3-carboxylic acid]
- MIC ([1]; AVI added at 4 μg/mL): 0.5 µg/mL
- MIC ([1]; NAC added at 4 μg/mL): 0.03 µg/mL
- MIC ([1]; ZID added at 4 μg/mL): < 0.015 µg/mL
- MIC [1, 5]: 1 µg/mL
- MIC [2, 5]: 2 µg/mL
- MIC ([2]; with AVI at 4 μg/mL): 0.25 µg/mL
- MIC ([2]; with TAZ at 4 μg/mL): 1 µg/mL
- MIC ([2]; with VAB at 4 μg/mL): 0.5 µg/mL
- MIC [3]: 1 µg/mL (≈ 1.3 µM)
- responders at 40 mg/kg [4]: ≥ 90%
